Measured values from patent US6673768B1, “Transgenic animal models for cardiac hypertrophy and methods of use thereof (treating)” (Board of Regents, The University of Texas System, priority 1997, dated 2004).

Key:
[1] = tested on: neonatal rat cardiomyocytes; experiment: AngII- and PE-induced hypertrophy of primary cardiomyocytes (anti-α-actinin staining, cell size and sarcomeric assembly); assay type: cell-based; conditions: 72 hr; AngII 10 nM or PE 10 μM
Procedure: To visualize primary cardiomyocytes and their sarcomeric organization, anti-α-actinin mouse monoclonal antibody was used (Sigma). […] Cells were washed in 1×phosphate-buffered saline (PBS), fixed in 3.7% paraformaldehyde for 5 minutes, washed three times with 1×PBS and then pre-blocked in 1×PBS containing 2% horse serum, 2% BSA, and 0.1% non-ionic detergent NP40 for 30 minutes. Anti-α-actinin antibody was added at a dilution of 1:800 in fresh preblock solution and incubated for an additional 30 minutes. Subsequently, the cells were washed three times in 1×PBS with 0.1% NP40. Anti-mouse TRITC-conjugated secondary antibody was then added at a dilution of 1:400 for 30 minutes in pre-block solution and the cells were again washed three times in 1×PBS containing 0.1% NP40. Nuclear staining for DNA was performed with 0.5 μg/ml of bisbenzimide in PBS for 15 minutes followed by three rinses with PBS.

[2] = tested on: atrial natriuretic factor (ANF) mRNA; experiment: ANF mRNA dot blot in primary cardiomyocytes treated with AngII; assay type: cell-based, rat; conditions: AngII exposure
Procedure: A-F, Primary rat cardiocytes in serum-free medium were stimulated with AngII (10 nM) or PE (10 μm) for 72 hours. Cells were then fixed and stained with anti-α-actinin antibody to reveal sarcomeres and Hoechst stain to reveal nuclei. […] G, Total RNA was isolated from primary cardiocyte cultures treated with AngII in the presence or absence of CsA as in A and analyzed for expression of GAPDH and ANF transcripts by dot blot. H, Primary rat cardiomyocytes were transiently transfected with a luciferase reporter gene linked to 3 tandem copies of the NF-AT consensus binding site. Cells were then treated with AngII or PE in the presence or absence of CsA, as described above. Forty-eight hours later, cells were harvested and luciferase activity was determined.
To determine whether changes in cardiomyocyte gene expression in response to AngII were also controlled by a calcineurin-dependent signaling pathway, the expression of ANF mRNA in cardiomyocytes treated with AngII was examined in the presence and absence of CsA by a dot blot assay. […] GAPDH mRNA was measured as a control.
RNA analysis. Total RNA was collected and purified with Triazol reagent (Gibco BRL) as recommended. […]

What does the source list for “angiotensin II [AngII, humoral factor which induces the hypertrophic response in cardiomyocytes]”?
cardiomyocyte size and sarcomeric assembly after exposure to agonist [1]: dramatic increase in size and sarcomeric assembly; increase in ANF mRNA [2]: 15 fold
